The values below come from patent US9278942B2, “Non-steroidal compounds as androgen receptor modulators” (FLX Discoveries Oy, priority 2011, dated 2016).

The inhibition is how much of the control response was suppressed.

For assay [1], the target named is T1, human AR (Homo sapiens, UniProt P10275).
T1 construct: expressed in transfected cells; host or cells: COS-1
T1 sequence (P10275 1-920): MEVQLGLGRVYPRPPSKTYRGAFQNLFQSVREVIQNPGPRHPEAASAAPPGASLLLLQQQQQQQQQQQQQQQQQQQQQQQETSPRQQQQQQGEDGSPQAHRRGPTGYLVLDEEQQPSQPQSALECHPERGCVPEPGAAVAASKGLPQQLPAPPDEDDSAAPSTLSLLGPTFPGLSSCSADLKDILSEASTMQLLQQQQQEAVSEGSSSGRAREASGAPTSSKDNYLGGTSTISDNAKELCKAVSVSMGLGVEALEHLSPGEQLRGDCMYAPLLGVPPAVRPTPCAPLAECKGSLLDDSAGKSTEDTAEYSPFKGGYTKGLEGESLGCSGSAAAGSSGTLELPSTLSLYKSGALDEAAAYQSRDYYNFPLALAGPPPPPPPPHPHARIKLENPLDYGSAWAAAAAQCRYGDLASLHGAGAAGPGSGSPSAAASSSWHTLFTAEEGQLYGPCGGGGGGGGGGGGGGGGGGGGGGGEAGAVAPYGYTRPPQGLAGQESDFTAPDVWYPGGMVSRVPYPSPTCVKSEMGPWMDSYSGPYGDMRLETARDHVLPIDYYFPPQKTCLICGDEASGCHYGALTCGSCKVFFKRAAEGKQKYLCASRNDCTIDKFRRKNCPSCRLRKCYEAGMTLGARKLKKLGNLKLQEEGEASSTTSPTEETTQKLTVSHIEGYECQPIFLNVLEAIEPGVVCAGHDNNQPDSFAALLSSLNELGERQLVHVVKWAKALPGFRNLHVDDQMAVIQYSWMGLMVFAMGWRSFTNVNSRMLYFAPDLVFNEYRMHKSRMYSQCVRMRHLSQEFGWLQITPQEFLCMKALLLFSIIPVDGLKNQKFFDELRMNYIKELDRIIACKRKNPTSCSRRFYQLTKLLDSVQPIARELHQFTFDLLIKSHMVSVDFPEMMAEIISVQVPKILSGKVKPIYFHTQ
Kind of assay: AR antagonism assay: inhibition of transcriptional activation of AR (Probasin-luc reporter, COS-1 cells). The note with it: compound 10.0 μM, relative luciferase response: 100% for testosterone (no antiandrogenic effect), 0% for complete antagonism; for remaining activity at 10 µM: COS-1, 18 h, read-out: AR antagonism against 100 nM testosterone ± S.D. The format is cell-based. The protocol: Determination of the Antiandrogen Activity.
Testosterone was bought from Sigma Chemical Co. (St. Louis, Mo.) and hydroxyflutamide from Chemos GmbH. One day before transfection, COS-1 cells (from ATCC) were seeded into 1 ml of DMEM (Dulbecco's modified Eagle medium, Gibco) with 10% dextran-charcoal-treated fetal bovine serum and 0.25% (vol/vol) Penicillin-Streptomycin (Euroclone) at a density of 70×10^3 cells/well. After medium change to DMEM 2.5% FBS, the cells were transfected for 24 hours with 10 ng/well of human AR expression vector pSG5-hAR, 100 ng/well of reporter plasmid Probasin-luc, and 10 ng/well of control plasmid pCMV-β-gal by using the TransIT method (Micrus Bio TransIT LT1, Transfection Reagent). After the transfection, the cells received treatment of test compounds giving final concentration of 10 μM for each compound. In the antagonist test the wells were also treated with 100 nM final concentration of testosterone. After 18 hours, the cells were washed, lysed and assayed for luciferase and normalization for β-galactosidase activities and protein concentrations. The cells were washed with 100 μl of cold phosphate buffered saline (PBS) and lysed with 35 μl 1× Reporter lysis Buffer (Promega) and frozen (−70° C.) for 30 minutes. Cell lysates were placed in 1.5-ml propylene tubes and centrifuged at 13200×g for 5 minutes at room temperature. For β-galactosidase assay 10 μl of supernatant from each cell extract was transferred to a 96-well plate (96 well Elisa Microplates, PS, Microcon) and incubated for 10 minutes at 37° C. with 65 μl of reaction mixture consisting 0.76 μl 100×Mg-buffer, 12.5 μl ONPG (4 mg/ml), and 54.3 μl of sodium-phosphate buffer (pH 7). The reaction was stopped with treatment of 125 μl Na2CO3. For luciferase assay 10 μl of the supernatant was transferred to a 96-well plate (Greiner Microlon lumitrac 200) and treated with 30 μl of luciferase assay substrate solution (Promega Luciferase Assay System E1501). For the study of protein concentrations 5 μl of the supernatant was transferred to a 96-well plate (Elisa Microplates, PS, Microcon) and mixed with 200 μl of Bio-rad protein assay reagent. The luciferase activities were measured with Thermo Luminoscan Ascent scanner and the protein concentrations and β-galactosidase activities with Thermo Labsystem Multiscan Ex scanner. Also blank and control samples were measured. During the maintenance, transfection, and treatment with tested compounds the cells were incubated in humidified atmosphere with 5% carbon dioxide at 37° C.

The target in assay [2] is T1, human AR. Kind of assay: Competitive AR binding assay against [3H]-R1881 in transiently transfected COS-1 cells. The following applies: compound 13.4 μM, [3H]-R1881 1.34 nM, complete inhibition equals 100%; for inhibition at 13.4 µM: read-out: Inhibition of [3H]-R1881 binding at 1.34 nM ± S.D. The protocol:
Competitive AR Binding Assay.
AR binding was measured by a competitive assay against [^3H]-R1881 (PerkinElmer) in transiently transfected COS-1 cells. One day before transfection, COS-1 cells were seeded into 2 ml of DMEM (Dulbecco's modified Eagle medium, Gipco) with 10% dextran-charcoal-treated fetal bovine serum and 0.25% (vol/vol) Penicillin-Streptomysin (Euroclone) at a density of 140×10^3 cells/well. After medium change to DMEM 2.5% FBS, the cells were transfected for 24 hours with 10 ng/well of human AR expression vector pSG5 hAR by using the TransIT method (Micrus Bio TransIT LT1, Transfection Reagent). After 36 hours, the cells where treated with tested compounds using 10000 fold molarities compared to labelled R1881 (1.34 nM). After 2 hours of incubation at 37° C., the medium was removed. The cells were removed from the wells to 150 μl of 1× phosphate buffered saline (PBS), transferred to Eppendorf tubes and centrifuged at 4° C. using 4000×g for 5 min, and then washed twice with 150 μl of PBS. The cell pellets were dissolved to 50 μl of 0.5M NaOH and incubated for 15 min at 56° C., after which the samples (three replicates for each sample compound) were transferred to liquid twinkle tubes with 3 ml of OptiPhase HiSafe 3 twinkle solution (PerkinElmer) and radioactivity of AR-bound [^3H]-R1881 determined. The results were measured with LKB WALLAC 1214 racbeta equipment. The ability of test compounds to bind AR is reported as reduction in bound radioactivity obtained with 1.34 nM [^3H]-R1881.
The results (% inhibition) were calculated as: % inhibition=100−[100×(averagecompound/average[3H]-R1881)].

Turning to `O=[N+]([O-])c1ccc(C2=NOC3CCCC23)cc1C(F)(F)F` (single isomer, unassigned) [Example 21a, 3-(4-Nitro-3-trifluoromethyl-phenyl)-4,5,6,6a-tetrahydro-3aH-cyclopenta[d]isoxazole], on human AR [1], the remaining activity at 10 µM was 19.2 ± 6.8%. The “Inhibition of [3H]-R1881 binding at 1.34 nM ± S.D.” value (“Inhibition of [3H]-R1881 binding” below) at human AR [2] (Table 3) was determined as 69.7 ± 4.5%. For the molecule `O=[N+]([O-])c1ccc(C2=NOC3CCCC23)cc1C(F)(F)F` (single isomer, unassigned) [Example 21b, 3-(4-Nitro-3-trifluoromethyl-phenyl)-4,5,6,6a-tetrahydro-3aH-cyclopenta[d]isoxazole], the “AR antagonism against 100 nM testosterone ± S.D.” value (shortened to “AR antagonism”) at human AR [1] is 22.9 ± 4.9%. Besides, at human AR [2] (Table 3), the “Inhibition of [3H]-R1881 binding” value stood at 90.9 ± 0.9%.

As for `Clc1ccc(C2=NOC3CCCCC23)cc1` (single isomer, unassigned) [Example 32a, 3-(4-Chloro-phenyl)-3a,4,5,6,7,7a-hexahydro-benzo[d]-isoxazole], the “AR antagonism” value at human AR [1] worked out at 40.9 ± 2.4%. For the same molecule, at human AR [2] (Table 1), the “Inhibition of [3H]-R1881 binding” value came out at 30.5 ± 5.4%. The matching figures for `Clc1ccc(C2=NOC3CCCCC23)cc1` (single isomer, unassigned) [Example 32b, 3-(4-Chloro-phenyl)-3a,4,5,6,7,7a-hexahydro-benzo[d]-isoxazole]: 91.4 ± 7.7% and 0%. Turning to `c1ccc2c(C3=NOC4CCCCC34)cccc2c1` (single isomer, unassigned) [Example 33a, 3-Naphthalen-1-yl-3a,4,5,6,7,7a-hexahydro-benzo[d]-isoxazole], the “AR antagonism” value on human AR [1] was 40.2 ± 7.1%. Further, at human AR [2] (Table 1), the inhibition at 13.4 µM turned out to be 68.4 ± 1.9%. Consider `c1ccc2c(C3=NOC4CCCCC34)cccc2c1` (single isomer, unassigned) [Example 33b, 3-Naphthalen-1-yl-3a,4,5,6,7,7a-hexahydro-benzo[d]-isoxazole], for which the “AR antagonism” value at human AR [1] was determined as 100%. For the same molecule, on human AR [2] (Table 1), the “Inhibition of [3H]-R1881 binding” value is recorded as 56.9 ± 4.4%. `O=[N+]([O-])c1ccc(C2=NOC3CCCCC23)c(C(F)(F)F)c1` (single isomer, unassigned) [Example 38a, 3-(4-Nitro-2-trifluoromethyl-phenyl)-3a,4,5,6,7,7a-hexahydro-benzo-[d]-isoxazole]: the “AR antagonism” value on human AR [1] is on record as 2.9 ± 0.5%. Further, the inhibition at 13.4 µM on human AR [2] (Table 1) is 94.5 ± 0.5%. On to `O=[N+]([O-])c1ccc(C2=NOC3CCCCC23)c(C(F)(F)F)c1` (single isomer, unassigned) [Example 38b, 3-(4-Nitro-2-trifluoromethyl-phenyl)-3a,4,5,6,7,7a-hexahydro-benzo-[d]-isoxazole], for which the “AR antagonism” value at human AR [1] worked out at 75.9 ± 3.7%. At human AR [2] (Table 1), the “Inhibition of [3H]-R1881 binding” value stood at 90.7 ± 0.5%. With `COc1ccccc1C1=NOC2CCCCC12` (stereo not shown) [Example 23ab, 3-(2-Methoxy-phenyl)-3a,4,5,6,7,7a-hexahydro-benzo[d]isoxazole], at human AR [1], the remaining activity at 10 µM worked out at 40.9 ± 2.4%. Take `Oc1ccc(C2=NOC3CCCCC23)cc1` (stereo not shown) [Example 26a, 4-(3a,4,5,6,7,7a-Hexahydro-benzo[d]isoxazol-3-yl)-phenol]: at human AR [1], the remaining activity at 10 µM was 25.7 ± 5.5%. For the molecule `Oc1ccc(C2=NOC3CCCCC23)cc1` (stereo not shown) [Example 26b, 4-(3a,4,5,6,7,7a-Hexahydro-benzo[d]isoxazol-3-yl)-phenol], the “AR antagonism” value at human AR [1] was determined as 41.0 ± 1.6%. Take `O=[N+]([O-])c1ccc(C2=NOC3CCCCC23)cc1` (stereo not shown) [Example 34ab, 3-(4-Nitro-phenyl)-3a,4,5,6,7,7a-hexahydro-benzo[d]-isoxazole]: the remaining activity at 10 µM on human AR [1] is 48 ± 6.7%. For the molecule `CCCCN1C(c2ccc3ccccc3c2)=NOC1(C)Cc1ccccc1` (stereo not shown) [Example 54ab, 5-Benzyl-4-butyl-5-methyl-3-napthalen-2-yl-4,5-dihydro-[1,2,4]oxadiazole], the inhibition at 13.4 µM at human AR [2] (Table 1) is 28.2 ± 3%. Turning to `CCCCN1C(Cc2ccccc2)=NOC1(C)Cc1ccccc1` (stereo not shown) [Example 55a, 3,5-Dibenzyl-4-butyl-5-methyl-4,5-dihydro-[1,2,4]oxadiazole], on human AR [2] (Table 1), the inhibition at 13.4 µM was determined as 35.1 ± 5.8%. As for `CCCCN1C(Cc2ccccc2)=NOC1(C)Cc1ccccc1` (stereo not shown) [Example 55b, 3,5-Dibenzyl-4-butyl-5-methyl-4,5-dihydro-[1,2,4]oxadiazole], the “Inhibition of [3H]-R1881 binding” value at human AR [2] (Table 1) was found to be 32.7 ± 3.5%. Take `CCCCN1C(CCc2ccccc2)=NOC1(C)Cc1ccccc1` (stereo not shown) [Example 57ab, 5-Benzyl-4-butyl-5-methyl-3-phenethyl-4,5-dihydro-[1,2,4]oxadiazole]: the inhibition at 13.4 µM on human AR [2] (Table 1) was 48.7 ± 3.3%. On the same count and under the same terms, to `CCCCN1C(CCc2ccc(OC)cc2)=NOC1(C)Cc1ccccc1` (stereo not shown) [Example 58ab, 5-Benzyl-4-butyl-3-[2-(4-methoxy-phenyl)-ethyl]-5-methyl-4,5-dihydro-[1,2,4]oxadiazole] belongs 8.2 ± 1.3%; to `CCCCN1C(CCCc2ccccc2)=NOC1(C)Cc1ccccc1` (stereo not shown) [Example 59ab, 5-Benzyl-4-butyl-5-methyl-3-(3-phenyl-propyl)-4,5-dihydro-[1,2,4]oxadiazole], 39.1 ± 2.6%. Regarding `CC(C)CN1C(CCc2ccccc2)=NOC1(C)Cc1ccccc1` (stereo not shown) [Example 66ab, 5-Benzyl-4-isobutyl-5-methyl-3-phenethyl-4,5-dihydro-[1,2,4]oxadiazole], the inhibition at 13.4 µM at human AR [2] (Table 1) amounted to 17.8 ± 2.4%. Same read-out and setting: for `CC(C)CN1C(CCCc2ccccc2)=NOC1(C)Cc1ccccc1` (stereo not shown) [Example 68ab, 5-Benzyl-4-isobutyl-5-methyl-3-(3-phenyl-propyl)-4,5-dihydro-[1,2,4]oxadiazole] the value was 14.7 ± 1%.
